The text below walks through data of paper PMC4078991 (Nature, 2014).

For data set [1], the system named is apoptotic Jurkat cells. The data set can be described thus: Formation of apoptotic bodies from apoptotic Jurkat cells. In kind it is cell-based. The following applies: for formation of apoptotic bodies in Jurkat cells expressing PANX1 DN mutant: inhibitors of blebbing; for formation of apoptotic bodies: Jurkat cells, anti-Fas induced apoptosis.
A further data set relates to primary thymocytes. Format: cell-based, mouse. The following applies: 10 μM.
The test system of a further data set is PANX1-GFP. As to the kind of experiment: Proteolytic cleavage of PANX1-GFP during apoptosis. In kind it is cell-based. The following applies: 500 μM.
In data set [2] the target is T1, PANX1 (Homo sapiens, UniProt Q96RD7). Format: cell-based. Conditions: Jurkat cells 2h anti-Fas, trovafloxacin 20 μM; for effect on outward current of apoptotic cells: at +80mV; for effect on inward current of apoptotic cells: at -50mV.
T1 sequence (Q96RD7 1-379 limits assumed): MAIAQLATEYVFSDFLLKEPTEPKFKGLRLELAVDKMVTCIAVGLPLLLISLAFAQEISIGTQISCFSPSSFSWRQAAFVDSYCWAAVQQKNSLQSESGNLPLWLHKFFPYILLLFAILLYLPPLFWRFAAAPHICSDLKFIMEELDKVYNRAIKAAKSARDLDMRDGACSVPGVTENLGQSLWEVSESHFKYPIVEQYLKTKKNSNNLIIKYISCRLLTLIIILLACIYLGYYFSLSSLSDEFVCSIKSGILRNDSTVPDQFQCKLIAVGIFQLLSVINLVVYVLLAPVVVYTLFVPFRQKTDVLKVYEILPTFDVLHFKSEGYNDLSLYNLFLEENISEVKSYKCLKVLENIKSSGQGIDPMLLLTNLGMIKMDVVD
In data set [3] the test system is apoptotic Jurkat cells. The data set can be described thus: Time-lapse microscopy of apoptotic cell morphology. In kind it is cell-based. Conditions: time-lapse imaging.
A further data set deals with Escherichia coli. The data set can be described thus: Bacterial growth assay. Format: cell-based. The following applies: 6h incubation, O.D. at 600 nm.
The target of data set [4] is T1, PANX1. The data set can be described thus: TO-PRO-3 uptake by apoptotic Jurkat cells. Format: cell-based. The following applies: for inhibition of TO-PRO-3 uptake (PANX1-dependent dye uptake) by apoptotic cells: anti-Fas, compound present during apoptosis induction.
Data set [5] addresses T1, PANX1. The data set can be described thus: ATP release from apoptotic cells. The following applies: apoptotic Jurkat cells. Format: cell-based.
Another data set concerns caspase 3/7. The data set can be described thus: Caspase 3/7 activation in Jurkat cells undergoing apoptosis. In kind it is cell-based. The following applies: trovafloxacin 40 μM.
The next data set concerns the target connexin 43 (Cx43) (Homo sapiens, UniProt P17302). As to the kind of experiment: Whole-cell patch-clamp of Cx43 current in HEK293T cells. In kind it is cell-based. The following applies: 20 μM. (In patch-clamp work, channel activity is measured electrically.)
The target in the next data set is T2, mouse Panx2 (Mus musculus, UniProt Q6IMP4).
T2 sequence (Q6IMP4 1-677): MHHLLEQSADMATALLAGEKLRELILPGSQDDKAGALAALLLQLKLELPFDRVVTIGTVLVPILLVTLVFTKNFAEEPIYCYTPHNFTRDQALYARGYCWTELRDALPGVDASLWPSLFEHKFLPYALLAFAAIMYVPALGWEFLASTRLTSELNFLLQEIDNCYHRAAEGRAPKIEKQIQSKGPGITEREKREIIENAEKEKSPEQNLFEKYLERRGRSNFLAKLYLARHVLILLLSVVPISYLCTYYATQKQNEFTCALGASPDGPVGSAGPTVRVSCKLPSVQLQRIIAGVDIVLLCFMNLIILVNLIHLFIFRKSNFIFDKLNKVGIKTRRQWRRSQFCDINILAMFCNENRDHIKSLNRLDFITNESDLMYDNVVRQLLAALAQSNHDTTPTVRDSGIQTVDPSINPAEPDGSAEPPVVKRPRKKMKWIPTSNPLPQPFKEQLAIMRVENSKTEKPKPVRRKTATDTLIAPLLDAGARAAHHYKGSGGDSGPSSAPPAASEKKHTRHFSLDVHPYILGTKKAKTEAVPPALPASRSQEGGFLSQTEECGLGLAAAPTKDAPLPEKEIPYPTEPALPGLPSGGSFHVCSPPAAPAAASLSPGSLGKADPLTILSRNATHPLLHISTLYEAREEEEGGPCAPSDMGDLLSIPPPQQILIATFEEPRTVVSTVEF
The data set can be described thus: Whole-cell patch-clamp of Panx2 current in HEK293T cells. In kind it is cell-based. Conditions: 20 μM.

A further data set concerns apoptotic thymocytes. The data set can be described thus: In vivo model of thymic apoptosis. Also on record: species or system mouse. Conditions: wild-type mice, administered with dexamethasone.
For data set [6] the following is noted: cited from earlier work.
The conditions of data set [7]: cited from earlier work. This is another data set of the same source.

connexin 43 (Cx43), sequence (P17302 2-382 limits assumed, species assumed): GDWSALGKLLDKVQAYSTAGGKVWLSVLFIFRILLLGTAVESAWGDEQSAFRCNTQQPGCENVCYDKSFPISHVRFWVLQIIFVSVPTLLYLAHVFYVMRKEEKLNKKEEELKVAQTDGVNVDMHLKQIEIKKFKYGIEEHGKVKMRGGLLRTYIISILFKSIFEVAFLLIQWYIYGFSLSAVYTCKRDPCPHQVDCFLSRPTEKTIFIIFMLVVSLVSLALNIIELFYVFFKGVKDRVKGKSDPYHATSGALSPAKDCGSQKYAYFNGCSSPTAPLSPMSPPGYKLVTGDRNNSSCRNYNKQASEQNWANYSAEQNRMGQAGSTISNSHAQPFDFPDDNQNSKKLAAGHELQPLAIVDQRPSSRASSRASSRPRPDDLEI

In the case of `C[C@@H](N)[C@H]1CC[C@H](C(=O)Nc2ccncc2)CC1` [Y-27632], the “formation of apoptotic bodies in Jurkat cells expressing PANX1 DN mutant” value in the data set with apoptotic Jurkat cells [1] was “reduce the formation of apoptotic bodies”. Besides, the “enhanced formation of apoptotic bodies in apoptotic thymocytes from mice with PANX1 deficiency” value in the data set with primary thymocytes is on record as “blunted”.

Regarding `CC1(C)[C@@H](OC(=O)CCC(=O)O)CC[C@]2(C)[C@H]3C(=O)C=C4[C@@H]5C[C@@](C)(C(=O)O)CC[C@]5(C)CC[C@@]4(C)[C@]3(C)CC[C@@H]12` [CBX, carbenoxolone], the “proteolytic cleavage of PANX1-GFP during apoptosis” value in the data set on PANX1-GFP is recorded as “not inhibited”. Further, at PANX1 [2], the “effect on outward current of apoptotic cells” value is “blocked both inward and outward currents”; the “effect on inward current of apoptotic cells” value is “blocked both inward and outward currents”. The “formation of apoptotic bodies” value in the data set on apoptotic Jurkat cells [1] is reported as “promoted formation of apoptotic bodies”. In the data set on apoptotic Jurkat cells [3], the “formation of apoptopodia (string-like structures) by apoptotic cells” value is “produced long string-like structures”.

In the case of `O=C(O)c1cn(C2CC2)c2cc(N3CCNCC3)c(F)cc2c1=O` [ciprofloxacin], in the data set on Escherichia coli, the Escherichia coli growth result is reported as “inhibit bacterial growth”.

For `C[C@H]1COc2c(N3CCN(C)CC3)c(F)cc3c(=O)c(C(=O)O)cn1c23` [levofloxacin], at PANX1 [4], the “inhibition of TO-PRO-3 uptake (PANX1-dependent dye uptake) by apoptotic cells” value (“inhibition of TO-PRO-3 uptake” below) was “did not block PANX1-dependent dye uptake”. In addition, the Escherichia coli growth entry with Escherichia coli was “inhibit bacterial growth”.

Take `Cc1ccc2c(c1)C(=O)C1(O)CCN(c3ccccc3)C1=N2` (centres unmarked) [blebbistatin]: the “formation of apoptotic bodies in Jurkat cells expressing PANX1 DN mutant” value in the data set with apoptotic Jurkat cells [1] is on record as “reduce the formation of apoptotic bodies”.

Turning to apyrase, the “formation of apoptotic bodies” value with apoptotic Jurkat cells [1] is “did not promote the formation of apoptotic bodies”.

Consider `CN1CCN(c2cc3c(cc2F)c(=O)c(C(=O)O)cn3-c2ccc(F)cc2)CC1` [difloxacin], for which, on PANX1 [4], the “inhibition of TO-PRO-3 uptake” value is “partially inhibited ATP release and TO-PRO-3 uptake”. Besides, the “inhibition of ATP release from apoptotic cells” value (“inhibition of ATP release” below) against PANX1 [5] is on record as “partially inhibited ATP release”. In addition, the “formation of apoptotic bodies” value in the data set with apoptotic Jurkat cells [1] is “promoted the formation of apoptotic bodies”.

As to `Cc1ccc(C(=O)Nc2ccc(S(=O)(=O)O)c3cc(S(=O)(=O)O)cc(S(=O)(=O)O)c23)cc1NC(=O)c1cccc(NC(=O)Nc2cccc(C(=O)Nc3cc(C(=O)Nc4ccc(S(=O)(=O)O)c5cc(S(=O)(=O)O)cc(S(=O)(=O)O)c45)ccc3C)c2)c1` [suramin], in the data set with apoptotic Jurkat cells [1], the “formation of apoptotic bodies” value is given as “did not enhance formation of apoptotic bodies”.

For the compound `C=C1[C@@H](C)[C@H]2[C@H](Cc3ccccc3)NC(=O)[C@]23[C@H](OC(C)=O)/C=C/[C@@](C)(O)C(=O)[C@@H](C)C/C=C/[C@H]3[C@@H]1O` [cytochalasin D], the “formation of apoptotic bodies in Jurkat cells expressing PANX1 DN mutant” value with apoptotic Jurkat cells [1] was “reduce the formation of apoptotic bodies”.

As for `CCCN(CCC)S(=O)(=O)c1ccc(C(=O)O)cc1` [probenecid], the “formation of apoptotic bodies” value with apoptotic Jurkat cells [1] is reported as “promoted formation of apoptotic bodies”.

Take `NC1CCN(c2nc3c(cc2F)c(=O)c(C(=O)O)cn3-c2ccc(F)cc2F)C1` (centres unmarked) [tosulfoxacin, tosufloxacin]: at PANX1 [4], the “inhibition of TO-PRO-3 uptake” value is “partially inhibited ATP release and TO-PRO-3 uptake”. The “inhibition of ATP release” value on PANX1 [5] is listed as “partially inhibited ATP release”. Also, the “formation of apoptotic bodies” value in the data set on apoptotic Jurkat cells [1] was “promoted the formation of apoptotic bodies”.

As to `N[C@@H]1[C@H]2CN(c3nc4c(cc3F)c(=O)c(C(=O)O)cn4-c3ccc(F)cc3F)C[C@@H]12` [trovafloxacin], the “inhibition of TO-PRO-3 uptake” value against PANX1 [4] is recorded as “potent inhibitor of TO-PRO-3 uptake”. Besides, the “TO-PRO-3 uptake after acute treatment of cells already undergoing apoptosis” value on PANX1 [4] (compound added post induction of apoptosis, 20 min) is given as “acutely blocked TO-PRO-3 uptake”. Besides, the “inhibition of ATP release” value against PANX1 [5] is listed as “inhibited ATP release”. For the same compound, the “caspase 3/7 activation during apoptosis” value with caspase 3/7 is “did not inhibit caspase 3/7 activation”. At PANX1 [2], the “effect on outward current of apoptotic cells” value is listed as “minimal effect on outward current” and the “effect on inward current of apoptotic cells” value is listed as “rapidly inhibited the inward current”. Besides, the “inhibition of connexin 43 gap junction current” value at connexin 43 (Cx43) is given as “did not inhibit”. For the same compound, the “inhibition of PANX2 current” value against mouse Panx2 was “did not inhibit”. For the same compound, the “formation of apoptotic bodies” value in the data set on apoptotic Jurkat cells [1] was “promoted the formation of apoptotic bodies in a concentration-dependent manner”. Also, in the data set with apoptotic thymocytes, the “fragmentation of apoptotic thymocytes in vivo (SSC high particles)” value is “promoted the fragmentation of the apoptotic thymocytes”. Besides, the Escherichia coli growth entry in the data set with Escherichia coli was “inhibit bacterial growth”. The “formation of apoptopodia (string-like structures) by apoptotic cells” value in the data set with apoptotic Jurkat cells [3] was “produced long string-like structures”. Besides, the “concentrations normally achieved in human plasma” value in data set [6] was 2000 to 10000 nM. In addition, the “side effects linked to use in patients” value in [7] is “serious adverse side effects”.
